US20100008932A1, “USE OF SOLUBLE CD160 TO SUPPRESS IMMUNITY” (INSERM (Institut National de la Sante et de la Recherche …, priority 2006, published 2010)

What was measured:
[1] = system: CD160 cell surface expression on IL-15-activated PB-NK lymphocytes; test: Inhibition of the GPI-anchored CD160 cleavage: flow cytometry of membrane-bound CD160 on IL-15-activated PB-NK cells; assay type: cell-based, human; settings: 8-12 h after 72 h IL-15, PB-NK cells, anti-CD160 mAb BY55 flow cytometry
Text: The antibodies used in this study were the following: anti-Flag M2 mAb (Sigma, St Quentin Fallavier, France), rabbit anti-GPI-phospholipase D (Caltag laboratories, Burlingame, Calif.), anti-CD56 mAb (Beckman-Coulter, Marseille, France), and anti-CD160 mAb (BY55 (IgM) and CL1-R2 (IgG1), produced locally). Irrelevant isotype-matched antibodies were used as negative controls. FITC- or PE-conjugated goat anti-mouse IgG or IgM (Beckman-Coulter), or coat anti-rabbit IgG (Caltag laboratories) were utilized as secondary reagents. Cells were phenotyped by indirect i munofluorescence. Briefly, the cells were incubated with the specific mAb for 30 min at 4° C., washed twice in PBS, and further incubated with the appropriated FITC- or PE-labeled secondary antibodies. After washing, cells were analyzed by flow cytometry on an EPICS XL apparatus (Beckman-Coulter). For intracellular staining, the cells were permeabilized in saponin buffer (PBS/0.1% BSA/0.1% saponin) (Sigma) prior to staining, and all subsequent steps were performed in saponin buffer, as described above.
The phospholipase inhibitors U73122, U73343 and 1,10 phenanthroline (1,10 PNT) were purchased from Sigma. 3×10^5/ml PB-NK cells were cultured for 72 h in RPMI 1640 supplemented with 10% heat-inactivated human serum, penicillin/streptomycin, L-glutamine and IL-15 (10 ng/ml; PeproTech, Levallois-Perret, France). […]

[2] = system: release of soluble CD160 by IL-15-stimulated PB-NK cells; test: Anti-CD160 immunoprecipitation and immunoblotting of soluble CD160 in PB-NK cell culture supernatant; assay type: cell-based, human; settings: IL-15-stimulated PB-NK cells cultured in the presence of 1,10-PNT; CL1-R2 immunoprecipitation and Western blot
Experimental: Culture medium (10 ml) from transfected COS7 cells was incubated with 5 μg of anti-Flag M2 mAb for 1 h 30 at 4° C., and immune complexes were collected with 20 μl of Protein G-Sepharose beads. Alternatively, 2×10^7 control or IL-15-activated PB-NK lymphocytes were cultured for 24-48 h in 10 ml of RPMI 1640 medium without serum. Culture supernatants were collected and incubated with CL1-R2 mAb (10 μg per test) followed by protein G-Sepharose beads. After washes, the precipitated proteins were separated by SDS-8% PAGE. The proteins were then transferred onto a nitrocellulose membrane and subjected to Western blot analysis using the anti-CD160 (CL1-R2, 5 μg/ml) or anti-Flag M2 (5 μg/ml) mAb. HRP-conjugated goat anti-mouse antibodies (Jackson Immunoresearch, Westgrove, Pa.) were used as secondary antibodies, and the immunoreactive proteins were visualized using an ECL kit (Amersham Biosciences).

Row | Structure (SMILES) | effect on IL-15-induced down-modulation of CD160 cell surface expression ([1]; 1,10 PNT 10 μM) | soluble CD160 protein band immunoprecipitated from culture supernatant [2] | effect on IL-15-induced down-modulation of CD160 cell surface expression ([1]; U73122 2 μM)
1 | O.c1cnc2c(c1)ccc1cccnc12 [1,10 PNT, 1,10-phenanthroline monohydrate] | partially impaired | no protein band is immunoprecipitated | 
2 | COc1ccc2c(c1)CC[C@@H]1[C@@H]2CC[C@]2(C)[C@@H](NCCCCCCN3C(=O)C=CC3=O)CC[C@@H]12 [U73122] |  |  | not affected
